Experimental data taken from patent US11033600B2, “Protease transition state inhibitor prodrugs” (priority 2016, dated 2021).
Where two headings read alike, the source gives them in different places.

Columns and labels:
[1] = molecular target: norovirus 3CL protease (NV 3CLpro) (Norovirus, UniProt Q83883); assay: FRET protease assay (3CL protease), enzyme inhibition; assay type: biochemical
Procedure: FRET protease assays. The FRET protease assay (3CL protease) was performed by preparing stock solutions of the substrate (Edans-DFHLQ/GP-Dabcyl, SEQ ID NO:1) and inhibitor in DMSO and diluting into assay buffer which was comprised of 20 mM HEPES buffer, pH 8, containing NaCl (200 mM), 0.4 mM EDTA, glycerol (60%), and 6 mM dithiothreitol (DTT). The protease was mixed with serial dilutions of each compound up to 100 μM or with DMSO in 25 μL of assay buffer and incubated at 37° C. for 30 min, followed by the addition of 25 μL of assay buffer containing substrate. Fluorescence readings were obtained using an excitation wavelength of 360 nm and an emission wavelength of 460 nm on a fluorescence microplate reader (FLx800; Biotec, Winoosk, Vt.) 1 h following the addition of substrate. Relative fluorescence units (RFU) were determined by subtracting background values (substrate-containing well without protease) from the raw fluorescence values. The dose-dependent FRET inhibition curves were fitted with a variable slope by using GraphPad Prism software (GraphPad, La Jolla, Calif.) in order to determine the IC50 values of the inhibitors.

[2] = tested on: NV in replicon harboring cells (HG23 cells); assay: Cell-based assay: virus replication in NV replicon harboring cells (HG23 cells), qRT-PCR; parameters: species or system norovirus (NV)
Procedure: The effects of each inhibitor on virus replication were examined against NV in the NV replicon harboring cells (HG23 cells). Briefly, confluent and semi-confluent HG23 cells were incubated with medium containing DMSO (<0.1%) or each compound (up to 200 uM) for 48 h. After the incubation, total RNA was extracted and viral genome was quantitated with real-time quantitative RT-PCR (qRT-PCR). The EC50 values were determined by GraphPadPrism software.

[3] = Table 1, ester prodrugs, average of at least two determinations, read-out: IC50 (50% inhibitory concentration in the enzyme assay)
[4] = Table 1, ester prodrugs, HG23 cells, 48 h, read-out: EC50 (50% effective concentration in cell culture)
[5] = Table 2, carbamate prodrugs, read-out: IC50
[6] = Table 2, carbamate prodrugs, HG23 cells, 48 h, read-out: EC50
[7] = Norovirus, HG23, given in M, read-out: EC50

norovirus 3CL protease (NV 3CLpro), sequence (Q83883 1101-1281): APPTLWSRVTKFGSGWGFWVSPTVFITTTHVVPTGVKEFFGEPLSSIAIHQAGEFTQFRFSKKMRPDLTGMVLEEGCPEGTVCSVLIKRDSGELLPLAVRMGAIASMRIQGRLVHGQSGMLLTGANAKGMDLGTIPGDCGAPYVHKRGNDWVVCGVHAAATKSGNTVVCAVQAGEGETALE

CC(=O)OC([C@H](C[C@@H]1CCNC1=O)NC(=O)[C@H](CC1CCCCC1)NC(=O)OCc1ccccc1)S(=O)(=O)O (stereo partly drawn) [Compound 15, (5S,8S)-5-(Cyclohexylmethyl)-3,6,11-trioxo-8-(((S)-2-oxopyrrolidin-3-yl)methyl)-1-phenyl-2,10-dioxa-4,7-diazadodecane-9-sulfonate]
IC50 [1, 3]: 7.5 µM
EC50 [2, 4]: 0.2 µM

CCCCCCCC(=O)OC([C@H](C[C@@H]1CCNC1=O)NC(=O)[C@H](CC1CCCCC1)NC(=O)OCc1cccc(Cl)c1)S(=O)(=O)O (stereo partly drawn) [Compound 12, (5 S, 8S)-1-(3-Chlorophenyl)-5-(cyclohexylmethyl)-3,6,11-trioxo-8-(((S)-2-oxopyrrolidin-3-yl)methyl)-2,10-dioxa-4,7-diazaoctadecane-9-sulfonate]
IC50 [1, 3]: 0.9 µM
EC50 [2, 4]: 0.03 µM

O=C(N[C@@H](CC1CCCCC1)C(=O)N[C@@H](C[C@@H]1CCNC1=O)C(OC(=O)C1CCCCC1)S(=O)(=O)O)OCc1ccccc1 (stereo partly drawn) [Compound 16, (5S,8S)-11-Cyclohexyl-5-(cyclohexylmethyl)-3,6,11-trioxo-8-(((S)-2-oxopyrrolidin-3-yl)methyl)-1-phenyl-2,10-dioxa-4,7-diazaundecane-9-sulfonate]
IC50 [1, 3]: 0.6 µM
EC50 [2, 4]: 0.06 µM

COC(=O)C(C)NC(=O)OC([C@H](C[C@@H]1CCNC1=O)NC(=O)[C@H](CC(C)C)NC(=O)OCc1ccccc1)S(=O)(=O)O (stereo partly drawn) [Compound 19, (5 S,8S)-5-Isobutyl-13-methyl-3,6,11,14-tetraoxo-8-(((S)-2-oxopyrrolidin-3-yl)methyl)-1-phenyl-2,10,15-trioxa-4,7,12-triazahexadecane-9-sulfonate]
IC50 [1, 5]: 1.8 µM
EC50 [2, 6]: 0.3 µM

COC(=O)C(C)NC(=O)OC([C@H](C[C@@H]1CCNC1=O)NC(=O)[C@H](CC1CCCCC1)NC(=O)OCc1ccccc1)S(=O)(=O)O (stereo partly drawn) [Compound 23, (5 S,8S)-5-(Cyclohexylmethyl)-13-methyl-3,6,11,14-tetraoxo-8-(((S)-2-oxopyrrolidin-3-yl)methyl)-1-phenyl-2,10,15-trioxa-4,7,12-triazahexadecane-9-sulfonate]
IC50 [1, 5]: 10.2 µM
EC50 [2, 6]: 0.2 µM

CC(C)C[C@H](NC(=O)OCc1ccccc1)C(=O)N[C@@H](C[C@@H]1CCNC1=O)C(O)S(=O)(=O)O (stereo partly shown) [Compound 24, reference compound]
IC50 ([1]; in μM, read-out: IC50): 0.8 µM
EC50 [2, 7]: 0.3 µM

CC(C)C[C@H](NC(=O)OCc1ccccc1)C(=O)N[C@@H](C[C@@H]1CCNC1=O)C(OC(=O)C(C)C)S(=O)(=O)O (stereo partly drawn) [Compound 8, (5S,8S)-5-Isobutyl-12-methyl-3,6,11-trioxo-8-(((S)-2-oxopyrrolidin-3-yl)methyl)-1-phenyl-2,10-dioxa-4,7-diazatridecane-9-sulfonate]
IC50 [1, 3]: 3.5 µM
EC50 [2, 4]: 0.3 µM

CCCCCC(=O)OC([C@H](C[C@@H]1CCNC1=O)NC(=O)[C@H](CC(C)C)NC(=O)OCc1ccccc1)S(=O)(=O)O (stereo partly drawn) [Compound 5, (5 S, 8S)-5-Isobutyl-3,6,11-trioxo-8-(((S)-2-oxopyrrolidin-3-yl)methyl)-1-phenyl-2,10-dioxa-4,7-diazahexadecane-9-sulfonate]
IC50 [1, 3]: 2.8 µM
EC50 [2, 4]: 0.3 µM

CC(=O)OC([C@H](C[C@@H]1CCNC1=O)NC(=O)[C@H](CC(C)C)NC(=O)OCc1ccccc1)S(=O)(=O)O (stereo partly drawn) [Compound 1, (5S,8S)-5-Isobutyl-3,6,11-trioxo-8-(((S)-2-oxopyrrolidin-3-yl)methyl)-1-phenyl-2,10-dioxa-4,7-diazadodecane-9-sulfonate]
IC50 [1, 3]: 10.5 µM
EC50 [2, 4]: 0.6 µM

CCCC(=O)OC([C@H](C[C@@H]1CCNC1=O)NC(=O)[C@H](CC(C)C)NC(=O)OCc1ccccc1)S(=O)(=O)O (stereo partly drawn) [Compound 3, (5S,8S)-5-Isobutyl-3,6,11-trioxo-8-(((S)-2-oxopyrrolidin-3-yl)methyl)-1-phenyl-2,10-dioxa-4,7-diazatetradecane-9-sulfonate]
IC50 [1, 3]: 3.7 µM
EC50 [2, 4]: 1.3 µM

CCCCC(=O)OC([C@H](C[C@@H]1CCNC1=O)NC(=O)[C@H](CC(C)C)NC(=O)OCc1ccccc1)S(=O)(=O)O (stereo partly drawn) [Compound 4, (5S,8S)-5-Isobutyl-3,6,11-trioxo-8-(((S)-2-oxopyrrolidin-3-yl)methyl)-1-phenyl-2,10-dioxa-4,7-diazapentadecane-9-sulfonate]
IC50 [1, 3]: 3.5 µM
EC50 [2, 4]: 1.4 µM

COC(=O)CNC(=O)OC([C@H](C[C@@H]1CCNC1=O)NC(=O)[C@H](CC(C)C)NC(=O)OCc1ccccc1)S(=O)(=O)O (stereo partly drawn) [Compound 18, (5 S,8S)-5-Isobutyl-3,6,11,14-tetraoxo-8-(((S)-2-oxopyrrolidin-3-yl)methyl)-1-phenyl-2,10,15-trioxa-4,7,12-triazahexadecane-9-sulfonate]
IC50 [1, 5]: 3.1 µM
EC50 [2, 6]: 0.4 µM

CC(C)C(=O)OC([C@H](C[C@@H]1CCNC1=O)NC(=O)[C@H](CC1CCCCC1)NC(=O)OCc1cccc(Cl)c1)S(=O)(=O)O (stereo partly drawn) [Compound 13, (5 S, 8S)-1-(3-Chlorophenyl)-5-(cyclohexylmethyl)-12-methyl-3,6,11-trioxo-8-(((S)-2-oxopyrrolidin-3-yl)methyl)-2,10-dioxa-4,7-diazatridecane-9-sulfonate]
IC50 [1, 3]: 0.3 µM
EC50 [2, 4]: 0.03 µM

COC(=O)C(NC(=O)OC([C@H](C[C@@H]1CCNC1=O)NC(=O)[C@H](CC1CCCCC1)NC(=O)OCc1cccc(Cl)c1)S(=O)(=O)O)C(C)C (stereo partly drawn) [Compound 22, (5 S,8S)-1-(3-Chlorophenyl)-5-(cyclohexylmethyl)-13-isopropyl-3,6,11,14-tetraoxo-8-(((S)-2-oxopyrrolidin-3-yl)methyl)-2,10,15-trioxa-4,7,12-triazahexadecane-9-sulfonate]
IC50 [1, 5]: 0.5 µM
EC50 [2, 6]: 0.04 µM

CC(C)C[C@H](NC(=O)OCc1ccccc1)C(=O)N[C@@H](C[C@@H]1CCNC1=O)C(OC(=O)c1ccccc1)S(=O)(=O)O (stereo partly drawn) [Compound 7, (5S,8S)-5-Isobutyl-3,6,11-trioxo-8-(((S)-2-oxopyrrolidin-3-yl)methyl)-1,11-diphenyl-2,10-dioxa-4,7-diazaundecane-9-sulfonate]
IC50 [1, 3]: 7.2 µM
EC50 [2, 4]: 0.8 µM

O=C(N[C@@H](CC1CCCCC1)C(=O)N[C@@H](C[C@@H]1CCNC1=O)C(O)S(=O)(=O)O)OCc1cccc(Cl)c1 (stereo partly shown) [Compound 26, reference compound]
IC50 ([1]; in μM, read-out: IC50): 0.1 µM
EC50 [2, 7]: 0.02 µM

CCCCCCCC(=O)OC([C@H](C[C@@H]1CCNC1=O)NC(=O)[C@H](CC(C)C)NC(=O)OCc1ccccc1)S(=O)(=O)O (stereo partly drawn) [Compound 6, (5S,8S)-5-Isobutyl-3,6,11-trioxo-8-(((S)-2-oxopyrrolidin-3-yl)methyl)-1-phenyl-2,10-dioxa-4,7-diazaoctadecane-9-sulfonate]
IC50 [1, 3]: 3 µM
EC50 [2, 4]: 0.5 µM

COC(=O)C(C)NC(=O)OC([C@H](C[C@@H]1CCNC1=O)NC(=O)[C@H](CC1CCCCC1)NC(=O)OCc1cccc(Cl)c1)S(=O)(=O)O (stereo partly drawn) [Compound 21, (5 S, 8S)-1-(3-Chlorophenyl)-5-(cyclohexylmethyl)-13-methyl-3,6,11,14-tetraoxo-8-(((S)-2-oxopyrrolidin-3-yl)methyl)-2,10,15-trioxa-4,7,12-triazahexadecane-9-sulfonate]
IC50 [1, 5]: 0.8 µM
EC50 [2, 6]: 0.025 µM

O=C[C@H](C[C@@H]1CCNC1=O)NC(=O)[C@H](CC1CCCCC1)NC(=O)OCc1cccc(Cl)c1 [Compound 25, reference compound]
EC50 ([2]; Norovirus, HG23, in μM, read-out: EC50): 0.02 µM

O=C(N[C@@H](CC1CCCCC1)C(=O)N[C@@H](C[C@@H]1CCNC1=O)C(OC(=O)C1CCCCC1)S(=O)(=O)O)OCc1cccc(Cl)c1 (stereo partly drawn) [Compound 14, (5 S,8S)-1-(3-Chlorophenyl)-11-cyclohexyl-5-(cyclohexylmethyl)-3,6,11-trioxo-8-(((S)-2-oxopyrrolidin-3-yl)methyl)-2,10-dioxa-4,7-diazaundecane-9-sulfonate]
IC50 [1, 3]: 0.4 µM
EC50 [2, 4]: 0.02 µM

COC(=O)C(NC(=O)OC([C@H](C[C@@H]1CCNC1=O)NC(=O)[C@H](CC(C)C)NC(=O)OCc1ccccc1)S(=O)(=O)O)C(C)C (stereo partly drawn) [Compound 20, (5 S,8S)-5-Isobutyl-13-isopropyl-3,6,11,14-tetraoxo-8-(((S)-2-oxopyrrolidin-3-yl)methyl)-1-phenyl-2,10,15-trioxa-4,7,12-triazahexadecane-9-sulfonate]
IC50 [1, 5]: 2.5 µM
EC50 [2, 6]: 0.4 µM

CCC(=O)OC([C@H](C[C@@H]1CCNC1=O)NC(=O)[C@H](CC(C)C)NC(=O)OCc1ccccc1)S(=O)(=O)O (stereo partly drawn) [Compound 2, (5S,8S)-5-Isobutyl-3,6,11-trioxo-8-(((S)-2-oxopyrrolidin-3-yl)methyl)-1-phenyl-2,10-dioxa-4,7-diazatridecane-9-sulfonate]
IC50 [1, 3]: 7.5 µM
EC50 [2, 4]: 0.7 µM
